The values below come from US6258780A (priority 1997, dated 2001).

Data set [1] concerns serum butyrylcholinesterase (BuChE). The data set can be described thus: serum BuChE activity after injection in mice. The data set is classed as in vivo, mouse. The following applies: for reduction of serum BuChE activity from normal levels: non-stressed mice, 0.1 mg/kg i.p., 10 minutes, 3 animals/group. As for the experimental part: Symptoms were reported at the end of the study.
Stress Induction: Stress was induced in adult FVB/N mice by 2×4 minute forced swim with a 4 minute rest interval in a 60×60 cm water bath at about 21° C., adapted from Melia et al, [1994]. […] Animals were decapitated 10 minutes following injection, trunk blood was collected [Melia et al, 1994], and cerebral cortex was quickly dissected and homogenized in solution D (10 mM Tris-HCl, pH 7.4, 1M NaCl, 1% Triton-X100, 1 mM EDTA, 1:10 weight/volume)[Neville et al, 1990]

Data set [2] concerns hippocampal slices. Description: paired-pulse facilitation in hippocampal slices. The data set is classed as cell-based.
Data set [3] relates to hippocampal slices, CA1 area. The data set is classed as cell-based.
Data set [4] relates to synaptophysin mRNA. Description: synaptophysin mRNA control test, in vivo or in brain slices. The data set is classed as cell-based.
The test system of data set [5] is c-fos mRNA. Description: brain c-fos mRNA by RT-PCR after pyridostigmine in mice. The data set is classed as in vivo, mouse. The settings on record: 20 minutes following 2 mg/kg.
In data set [6] the test system is serum BuChE. The settings on record: cited from earlier work.
Data set [7] deals with readthrough (I4) AChEmRNA. Description: readthrough (I4) AChEmRNA by RT-PCR / in situ hybridization. The data set is classed as cell-based, mouse. The source says: FIG. 7A are photographs showing kinetic follow-up of RT-PCR: Positions of primer pairs specific for the alternatively spliced AChEmRNA subtypes are presented on the left. [Primer pair 1361+/1869- ("E6") detects mRNA encoding the synaptic AChE form; […] ("I4/E5") detects both a 549 bp product of readthrough AChEmRNA and a 432 bp product encoding the GPI-lined red blood cell (RBC) form of the enzyme]. Note that both in vivo stress and in vitro AChE inhibition promoted significant increases of the readthrough (I4) but not the synaptic (E6) or erythrocyte (E5) forms of AChEmRNA. […] Signals were detected using alkaline phosphatase-streptavidin conjugates and Fast Red as a substrate. Shown are cortical layers II-V (upper panels), and magnified pyramidal neurons of cortical layer no. 2 (lower panels).
Selective induction of readthrough AChEmRNA following stress and AChE inhibition were measured using kinetic follow-up of RT-PCR. The positions of primer pairs specific for the alternatively spliced AChEmRNA subtypes are presented on the left of the FIG. 7. [Primer pair 1361+/1869- ("E6") detects mRNA encoding the synaptic AChE form; 1361+/175- ("I4/E5") detects both a 549 bp product of readthrough AChEmRNA and a 432 bp product encoding the GPI-lined red blood cell (RBC) form of the enzyme]. Both in vivo stress (forced swimming) and in vitro AChE inhibition promoted significant increases of the readthrough (I4) but not the synaptic (E6) or erythrocyte (E5) forms of AChEmRNA. […] Signals were detected using alkaline phosphatase-streptavidin conjugates and Fast Red as a substrate. […] 2 (lower panels).

Data set [8] can be described thus: PNS symptoms questionnaire, pyridostigmine in humans.
How the values of data set [9] were obtained:
Symptoms were reported at the end of the study. […] Percent inhibition (standard deviation was calculated in comparison to the average activity calculated in non-injected, not-stressed (n=12) and stressed (n=6) animals.
In both human studies each individual was asked to report on a yes/no questionnaire regarding symptoms related to the drug.

The conditions of data set [10]: similar regimen; cited from earlier work.
The conditions of data set [11]: cited from earlier work.
In data set [12] the test system is serum BuChE. The following applies: 0.1-0.5 mg/kg; cited from earlier work.
In data set [13] the test system is AChE mRNA. Description: brain AChE mRNA by RT-PCR after pyridostigmine in mice. The data set is classed as in vivo, mouse. The following applies: pyridostigmine administration, FIG. 10A lower panel.
The subject of data set [14] is ChAT or VAChT mRNA. The data set is classed as cell-based, mouse. The settings on record: with pyridostigmine 1 mM, 1 hour; BAPTA-AM 1 uM or TTX.
Data set [15] concerns c-fos mRNA. The data set is classed as cell-based, mouse. The following applies: with pyridostigmine 1 mM, 1 hour; BAPTA-AM 1 uM or TTX.
This is another data set of the same source.
Data set [16] in a line: HRP penetration into brain following swim stress (immunohistochemistry).
The nature of data set [17]: BBB permeability to Evans Blue following stress, adrenaline or atropine (Example 2).
Data set [18] in a line: brain penetration of Evans-blue dye following stress. The settings on record: stressed versus control.

Entries after “also recorded” stand apart in the source; their conditions may differ.

`CNC(=O)Oc1ccc2c(c1)[C@]1(C)CCN(C)[C@@H]1N2C` [physostigmine]: in data set [1], the “reduction of serum BuChE activity from normal levels” value was 22.6+/-5.4%. For the same compound, the “paired-pulse facilitation responses, 1 hour” value in [2] (1 mM physostigmine, 1 hour) was “prolonged duration and the intense signals of facilitation responses”. Further, the “paired-pulse facilitation responses, 3 hours” value in data set [2] (1 mM physostigmine, 3 hours) is “suppression of both these responses”. Also, in data set [3], the “responsiveness of cholinergic pathways to stimulation” value is “prominently muted, approaching that displayed by control slices”.

For the compound `C[N+](C)(C)CCOC(N)=O` [carbachol], in [3], the “amplitude of population spikes” value is reported as “increased the amplitude of population spikes” and the “signal increase by carbamylcholine” value was “dose-dependent increases in signal”.

Consider `CN(C)C(=O)Oc1ccc[n+](C)c1` [pyridostigmine], for which the “reduction of serum BuChE activity from normal levels” value in data set [1] was 16.7+/-6.9%. In addition, the “BuChE inhibition in stressed mice” value in [1] (stressed mice, 0.1 mg/kg) is on record as “tendency toward limitation of BuChE inhibition”. Moreover, the “synaptophysin mRNA” value in data set [4] is on record as “no change”. Further, the “amount of c-fos and AChE mRNA (earlier appearance of PCR product)” value in data set [5] was “increase in the amount of c-fos (upper panel) and AChE mRNA (lower panel)”. For the same compound, in data set [6], the “inhibition efficacy of serum butyrylcholinesterase, Gulf War” value is on record as “not modified”. In addition, the “subcellular localization of I4-AChEmRNA” value in data set [7] (pyridostigmine 2 mg/kg) is “shifted from around the nucleus under control conditions to the entire cell bodies and their apical dendrites”. The “I4-AChEmRNA labeling of cortical layers” value in data set [7] (pyridostigmine 2 mg/kg, control: layers II+V) was “intensified and included layer III+IV”. In addition, the “readthrough AChE mRNA labeling of somata and apical dendrites, all cortical layers” value in data set [7] (pyridostigmine exposure) was “intensely labeled”. Besides, in data set [8] (Gulf War, 213 soldiers), the “soldiers reporting PNS symptoms, average” value is recorded as 11.4% and the “soldiers reporting PNS symptoms, range” value is 6.1-20.4%. In data set [8] (peace time, double-blind), the “participants reporting PNS symptoms, average” value worked out at 18.8% and the “participants reporting PNS symptoms, range” value is 5.5-38.9%. Further, in [9] (Gulf War, 213 soldiers), the “soldiers reporting CNS symptoms, average” value came out at 23.6% and the “soldiers reporting CNS symptoms, range” value was 6.2-53.4%. Also, in [9] (peace time, double-blind), the “participants reporting CNS symptoms, average” value came out at 8.3% and the “participants reporting CNS symptoms, range” value was 0-16.6%. Besides, in [10], the “frequency of reported CNS symptoms, increase during the Gulf War” value is recorded as greater than 3 fold. In data set [11] (doses >1 mg/kg), the “CNS functions in primates” value is “perturb CNS functions”. For the same compound, in data set [11] (non-stressed), the “CNS functions in non-stressed primates or humans at peace time” value is “unaffected CNS functions”. Also, in data set [12], the “inhibition of serum BuChE activity at protective doses” value is 15-30%. The “amplitude and rate of rise of evoked population spikes in CA1” value in data set [3] was “increase in the amplitude and rate of rise of evoked population spikes”. The “AChE mRNA product appearance” value in data set [13] is “earlier appearance”.

`CC(=O)OCOC(=O)CN(CC(=O)OCOC(C)=O)c1ccccc1OCCOc1ccccc1N(CC(=O)OCOC(C)=O)CC(=O)OCOC(C)=O` [BAPTA-AM]: the “anti-cholinesterase-induced change in ChAT mRNA” value in [14] is “attenuated; also recorded: suppressed”. Besides, in [15], the “anti-cholinesterase-induced change in c-fos mRNA” value is given as “attenuated; also recorded: suppressed”. Besides, the “physostigmine-induced prolongation of paired-pulse facilitation” value in data set [2] (1 uM physostigmine and 1 uM BAPTA-AM, 1 hour) was “complete prevention”. The enhanced paired-pulse facilitation result in data set [2] (BAPTA-AM, FIG. 5A) is “prevented”.

`CN1[C@@H]2CC[C@H]1C[C@@H](OC(=O)C(CO)c1ccccc1)C2` (some centres unmarked) [atropine]: in data set [3], the “both phases of physostigmine-mediated hyperactivity” value is listed as “blocked” and the “suppression 1 hour after removal of atropine” value was “no suppression took place”.

With `NCCc1ccc(O)c(O)c1` [DA], the “enhancement of the body temperature reduction by coinjection” value (DA 1.0 mg/kg with pyridostigmine 0.6 mg/kg) is “approximately 0.5 °C”.

Consider “HRP: horseradish peroxidase, used to study changes in the BBB”, for which the “HRP staining of the hippocampus” value in data set [16] (following forced swimming) is “highest number of stained cells; also recorded: strong HRP staining”. Moreover, the “penetration of HRP into brain” value in data set [16] (forced swimming stress) is reported as “increased penetration”. Also, in [16] (non-stressed control), the “HRP staining, Corpus callosum, non-stressed control” value is given as “little staining”; the “HRP staining, Hippocampus, CA1-2, non-stressed control” value is on record as “no staining”; the “HRP staining, Medial hypothalamus (arcuate nucleus), non-stressed control” value is listed as “+ (diffuse staining)”. For the same compound, the “HRP staining, Hippocampus, CA1-2, stressed” value in [16] (stressed) was “staining of cells”. Besides, the “HRP staining of central nucleus of amygdala and paraventricular nucleus of hypothalamus” value in data set [16] (stressed mice) was “absence of HRP staining”.

Take `CC(C)NC[C@H](O)COc1cccc2ccccc12` (racemic) [propanolol]: under “post injection”, the “time for body temperature to return to normal” value was no more than 80 min. Under “pyridostigmine alone or together with propanolol”, the “time of reduction in body temperature” value was no more than 40 min.

For the compound `CNCC(O)c1ccc(O)c(O)c1` (centres unmarked) [adrenaline], the “effectiveness in opening the BBB compared with stress” value in [17] (administered doses and time course, atropine or adrenaline ip) was “somewhat less effective”.

As to `Cc1cc(-c2ccc(/N=N/c3ccc4c(S(=O)(=O)O)cc(S(=O)(=O)O)c(N)c4c3O)c(C)c2)ccc1/N=N/c1ccc2c(S(=O)(=O)O)cc(S(=O)(=O)O)c(N)c2c1O` [Evans-blue], in data set [18], the “increase in brain penetration of Evans-blue under stress” value is on record as greater than 10 fold. Moreover, the “BBB permeability to Evans Blue” value in data set [17] (following stress or 10 minutes after ip adrenaline or atropine) was “enhanced BBB permeability”.
